# Data: patent US9694016B2 (Novartis AG, priority 2013, dated 2017)
# Target: b-Raf (V600E) (Homo sapiens (Human), UniProt P15056, V600E)
# Conditions: read-out: b-Raf IC-50; AlphaScreen, 60 min pre-incubation, reaction 3 hours at room temperature
# b-Raf (V600E), sequence (P15056 whole entry V600E): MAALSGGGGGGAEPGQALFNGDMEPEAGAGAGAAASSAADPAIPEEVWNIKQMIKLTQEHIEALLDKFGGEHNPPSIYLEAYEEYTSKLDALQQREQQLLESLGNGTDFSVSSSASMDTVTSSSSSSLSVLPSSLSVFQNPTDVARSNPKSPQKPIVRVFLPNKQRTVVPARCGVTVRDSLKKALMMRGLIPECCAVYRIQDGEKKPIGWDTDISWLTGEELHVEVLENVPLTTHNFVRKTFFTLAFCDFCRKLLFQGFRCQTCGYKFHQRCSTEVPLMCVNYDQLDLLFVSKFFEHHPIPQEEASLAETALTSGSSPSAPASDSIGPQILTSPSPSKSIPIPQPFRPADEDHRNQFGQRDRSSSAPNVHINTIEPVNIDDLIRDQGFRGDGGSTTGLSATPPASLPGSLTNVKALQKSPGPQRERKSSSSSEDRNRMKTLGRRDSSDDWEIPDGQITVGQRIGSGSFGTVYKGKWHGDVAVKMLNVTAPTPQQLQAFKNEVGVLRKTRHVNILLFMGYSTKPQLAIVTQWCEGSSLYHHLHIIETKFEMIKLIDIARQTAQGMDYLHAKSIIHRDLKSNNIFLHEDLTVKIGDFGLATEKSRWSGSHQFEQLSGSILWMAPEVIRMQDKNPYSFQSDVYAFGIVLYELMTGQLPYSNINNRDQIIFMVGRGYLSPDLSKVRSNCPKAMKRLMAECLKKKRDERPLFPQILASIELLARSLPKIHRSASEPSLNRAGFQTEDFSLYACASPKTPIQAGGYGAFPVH
row,Structure (SMILES),IC50
1,"Cc1ccc(NC(=O)c2cc(C(C)(C)O)ccn2)cc1-c1cnc(OC(C)C)c(N2CCOCC2)c1 [Example 949, 4-(2-hydroxypropan-2-yl)-N-(3-(6-isopropoxy-5-morpholinopyridin-3-yl)-4-methylphenyl)picolinamide]",3.63 nM
2,"Cc1ccc(NC(=O)c2ccnc(S(C)(=O)=O)c2)cc1-c1cnc(OC(C)C)c(N2CCOCC2)c1 [Example 950, N-(3-(6-isopropoxy-5-morpholinopyridin-3-yl)-4-methylphenyl)-2-(methylsulfonyl)isonicotinamide]",0.47 nM
3,"Cc1ncc(NC(=O)c2ccnc(C(C)(F)F)c2)cc1-c1cnc(OC(C)C)c(N2CCOCC2)c1 [Example 952, 2-(1,1-difluoroethyl)-N-(6′-isopropoxy-2-methyl-5′-morpholino-[3,3′-bipyridin]-5-yl)isonicotinamide]",1.98 nM
4,"Cc1ncc(NC(=O)c2ccnc(C(C)(C)F)c2)cc1-c1cnc(OC(C)C)c(N2CCOCC2)c1 [Example 953, 2-(2-fluoropropan-2-yl)-N-(6′-isopropoxy-2-methyl-5′-morpholino-[3,3′-bipyridin]-5-yl)isonicotinamide]",3.33 nM
5,"Cc1ncc(NC(=O)c2ccnc(C(C)(C)C#N)c2)cc1-c1cnc(OC(C)C)c(N2CCOCC2)c1 [Example 954, 2-(2-cyanopropan-2-yl)-N-(6′-isopropoxy-2-methyl-5′-morpholino-[3,3′-bipyridin]-5-yl)isonicotinamide]",7.3 nM
6,"Cc1ncc(NC(=O)c2cc(C(C)(C)F)ccn2)cc1-c1cnc(OC(C)C)c(N2CCOCC2)c1 [Example 957, 4-(2-fluoropropan-2-yl)-N-(6′-isopropoxy-2-methyl-5′-morpholino-[3,3′-bipyridin]-5-yl)picolinamide]",6.23 nM
7,"Cc1ncc(NC(=O)c2cncc(C(F)(F)F)c2)cc1-c1cnc(OC(C)C)c(N2CCOCC2)c1 [Example 960, N-(6′-isopropoxy-2-methyl-5′-morpholino-[3,3′-bipyridin]-5-yl)-5-(trifluoromethyl)nicotinamide]",2.66 nM
8,"CCOc1ncc(-c2cc(C(=O)Nc3cc(C(F)(F)F)ncc3F)ccc2C)cc1N1CCOCC1 [Example 961, 3-(6-ethoxy-5-morpholinopyridin-3-yl)-N-(5-fluoro-2-(trifluoromethyl)pyridin-4-yl)-4-methylbenzamide]",1.83 nM
9,"Cc1ncc(NC(=O)c2cnnc(C(C)(C)C#N)c2)cc1-c1cnc(OCC(F)F)c(N2CCOCC2)c1 [Example 962, 6-(2-cyanopropan-2-yl)-N-(6′-(2,2-difluoroethoxy)-2-methyl-5′-morpholino-[3,3′-bipyridin]-5-yl)pyridazine-4-carboxamide]",15.4 nM

# Continued by falling IC50, values first:
row,IC50,Structure (SMILES)
1,18.1 nM,"Cc1ncc(NC(=O)c2ccnc(C(C)(C)O)c2)cc1-c1cnc(OC(C)C)c(N2CCOCC2)c1 [Example 955, 2-(2-hydroxypropan-2-yl)-N-(6′-isopropoxy-2-methyl-5′-morpholino-[3,3′-bipyridin]-5-yl)isonicotinamide]"
2,9.15 nM,"Cc1ncc(NC(=O)c2cc(C(C)(C)C#N)ccn2)cc1-c1cnc(OC(C)C)c(N2CCOCC2)c1 [Example 958, 4-(2-cyanopropan-2-yl)-N-(6′-isopropoxy-2-methyl-5′-morpholino-[3,3′-bipyridin]-5-yl)picolinamide]"
3,2.94 nM,"Cc1ncc(NC(=O)c2cc(C(C)(F)F)ccn2)cc1-c1cnc(OC(C)C)c(N2CCOCC2)c1 [Example 956, 4-(1,1-difluoroethyl)-N-(6′-isopropoxy-2-methyl-5-morpholino-[3,3′-bipyridin]-5-yl)picolinamide]"
4,2.88 nM,"Cc1ncc(NC(=O)c2ccnc(C(C)(C)F)c2)cc1-c1cnc(OC2CC3(COC3)C2)c(N2CCOCC2)c1 [Example 963, N-(6′-(2-oxaspiro[3.3]heptan-6-yloxy)-2-methyl-5′-morpholino-[3,3′-bipyridin]-5-yl)-2-(2-fluoropropan-2-yl)isonicotinamide]"
5,0.31 nM,"Cc1ccc(NC(=O)c2cncc(C(F)(F)F)c2)cc1-c1cnc(OC(C)C)c(N2CCOCC2)c1 [Example 951, N-(3-(6-isopropoxy-5-morpholinopyridin-3-yl)-4-methylphenyl)-5-(trifluoromethyl)nicotinamide]"
